Results as given in patent publication US20070166547A1, “Use of a layer consisting of hydrophobic linear, or two-dimensional polycyclic aromatics as a barrier layer or an encapsulation and electric components constructed with a layer of this type and comprising organic polymers” (priority 2003, published 2007).

What was measured:
plasma hemostasis = assay: Autocoagulation test (coagulating activity A) after intravenous administration; type: in vivo, rabbit; conditions: for effect on the coagulation activity, autocoagulation test (overall): doses 15.0, 30.0, 60.0 mg/kg
Description: The investigations were performed on 72 rabbits of the “Chinchilla” breed with a mass of 2.5±0.3 kg, who were administered which solutions of compounds 2, 15, 21, 37 in doses of 15, 30 and 60 mg/kg intravenously. The experiments included the thrombin-test (series No. 7300) and the coagulability-test (series No. 5000) purchased from the scientific-and-production association (SPA) “Renam”, thromboplastin (series No. 240600) and calcium chloride purchased from the SPA “MedioLab”
The static parameters of the blood and plasma coagulation (partial activated thromboplastin time, thrombin time, maximum coagulation activity (test for auto coagulation) were determined using the Behnk Electronic coagulometer (Germany). The operating principle of this instrument is based on the fact that the formed blood clot breaks the contacts of the pulse counter in the flask-pin circuit, said pin permanently oscillating in a vertical plane. The moment of formation of the clot is registered by stopping the stop watch hand.
The measurements were effected at a constant temperature of 37° C. maintained by a temperature control unit.
Compounds 2, 15, 21, 37 according to the invention at a concentration of 15, 30 and 60 mg/kg were intravenously administered to the above experimental animals and their blood samples were taken off 15, 30, 60 and 120 minutes after the administration.
Added to 0.2 ml of plasma obtained by centrifuging citrate blood at 1500 rev/min within 10 minutes was a glycosilate-calcium mixture (2.0 ml 0.222% CaCl2+0.1 ml of investigated citrate blood) 4, 6, 8, 10 minutes after the preparation of this mixture and the time of coagulation in the sample was determined.
The obtained results in seconds were translated in factors of coagulating activity A in percent, which specify the state of both the coagulating and anticoagulating parts of the blood coagulating system.

[1] = test system: metabolism of nitrogen oxide; assay: Morphine abstinence model: nitrites and nitrates NOX− in blood plasma, liver and brain; type: in vivo, rats Wistar; conditions: for Nitrites in blood plasma, Control + Compound / Nitrites in brain, Cortex of cerebrum, Control + Compound / Nitrites in brain, Hypothalamus, Control + Compound / Nitrites in brain, Mesencephalon, Control + Compound / Nitrites in liver, Control + Compound: compound alone 20.0 mg/kg intramuscularly; for Nitrites in blood plasma, Control + Morphine + compound / Nitrites in brain, Cortex of cerebrum, Control + Morphine + compound / Nitrites in brain, Hypothalamus, Control + Morphine + compound / Nitrites in brain, Mesencephalon, Control + Morphine + compound / Nitrites in liver, Control + Morphine + compound: morphinized rats then compound 20.0 mg/kg intramuscularly
Description: The experiments were carried out on rats in series of 7 animals on each compound according to the invention. Non-morphinized animal with not administered with compounds according to the invention were used as a control group. […] Then the rats were decapitated, the blood from somnolent arteries was collected in test tubes with solution EDTA as an anticoagulant, centrifuged at 1500 g for 15 minutes at 4° C.
To estimate the intensity of metabolism of nitrogen oxide in rats, quantitative determination of stable metabolites of nitrogen oxide—nitrites and nitrates NOX^− in the blood plasma, supernatanates of the liver and thymus gland, a study was conducted by a spectrometric method, and in the brain supernatanates by a […] method.
The spectrometric method is based the reaction of nitrites with the Griss reagent (a mixture of 2% solution of sulfanilamide and 0.2% N-(1-naphthyl)ethylene diamine. At the first step the nitrite reacts with sulfanilamide with formation of diazonium salt, and then with the second component to form azo dye with an adsorption maximum at 540 nm. For reduction of nitrates into nitrites, a fermentative method was used with bacterial reductase nitrate (Grisham M. B. et al., 1995). The samples of plasma and supernatant of the liver deproteinizated at 100° C. for 5 minutes incubated for 30 minutes at 37° C. in 50.0 mM of HEPES pH 7.4 in the presence of 0.2 unit/ml of Aspergillus reductase nitrate, 5.0 mkM of FAD and 0.1 mM of NAD-Ph. At the end of the reaction lactate dehydrogenase and pyruvate were added for isolation of NAD-Ph interfering with the Griss reaction. Then the Griss reagent was added and after 10-minute incubation the light absorption of the samples was measured at 540 nm. To amount of NOX^− was calculated using sodium nitrate as a standard.
The fluorometric method is based on calculation of the nitrite level by the intensity fluorescence of 2,3-diaminonaphthotriazole, a product of reaction of 2,3-diaminonaphthalene (DAN) and nitrite in an acidic medium (Misko T. R., Schilling R. J., Salvemini D. et al. “A fluorometric assay for the measurement of nitrite of biological samples”. Anal. Biochem., 1993, v. 214, p. 11-16). The brain supernatants deproteinizated at 100° C. were placed in a nitrite regenerating system containing 0.125 unit/ml of nitrate reductases, 25 mkM NADPh and 25 mkM FAD prepared in a 20-mM Tris-HCl buffer with pH 7.6 and incubated for 30 minutes at 37° C. The lactatedehydrogenase/pyruvate system was used for oxidation of the NADPh. Then 316 mkM of the DAN solution in 0.62 M of hydrochloric acids were added and the mixture was incubated for 10 minutes in darkness.
280 mM of NaOH were added for stabilization of the fluorescence of the formed 2,3-diaminonaphthotriazole. The fluorescence intensity was measured in the spectrofluorimeter Hitachi F-3000 at a wavelength of excitation of 365 nm and an emission of 405 nm. The concentration of NOX^− in the brain was calculated by means of a standard solution of sodium nitrate.

## Nc1ccnc2c(=O)n([C@@H]3O[C@H](CO)[C@@H](O)[C@H]3O)[nH]c(=O)c12 [Compound 2, 4-amino-7-(β-D-ribofuranosile)pyrido[2,3-d]-6H-pyridazine-5,8-dione]
Plasma hemostasis; dose 15.0 mg/kg intravenously
  A, % after 15 minutes (coagulating activity): 80.2%
  A, % after 30 minutes (coagulating activity): 100.0%
  A, % after 60 minutes (coagulating activity): 87.4%
  A, % after 120 minutes (coagulating activity): 98.0%
Plasma hemostasis; dose 30.0 mg/kg intravenously
  A, % after 15 minutes (coagulating activity): 98.4%
  A, % after 30 minutes (coagulating activity): 71.2%
  A, % after 60 minutes (coagulating activity): 104.2%
  A, % after 120 minutes (coagulating activity): 70.9%
Plasma hemostasis; dose 60.0 mg/kg intravenously
  A, % after 15 minutes (coagulating activity): 72.3%
  A, % after 30 minutes (coagulating activity): 60.8%
  A, % after 60 minutes (coagulating activity): 62.5%
  A, % after 120 minutes (coagulating activity): 65.7%
Plasma hemostasis
  effect on the coagulation activity, autocoagulation test (overall): have no effect on the coagulation activity

## Nc1cccc2c(=O)[nH][nH]c(=O)c12.[Na] [Compound 15, sodium salt of 5-amino-benzo[d]-3H-pyridazine-1,4-dione]
Plasma hemostasis; dose 15.0 mg/kg intravenously
  A, % after 15 minutes (coagulating activity): 82.3%
  A, % after 30 minutes (coagulating activity): 103.0%
  A, % after 60 minutes (coagulating activity): 89.0%
  A, % after 120 minutes (coagulating activity): 101.2%
Plasma hemostasis; dose 30.0 mg/kg intravenously
  A, % after 15 minutes (coagulating activity): 100.3%
  A, % after 30 minutes (coagulating activity): 68.4%
  A, % after 60 minutes (coagulating activity): 106.6%
  A, % after 120 minutes (coagulating activity): 70.6%
Plasma hemostasis; dose 60.0 mg/kg intravenously
  A, % after 15 minutes (coagulating activity): 74.4%
  A, % after 30 minutes (coagulating activity): 63.2%
  A, % after 60 minutes (coagulating activity): 64.4%
  A, % after 120 minutes (coagulating activity): 66.5%
Plasma hemostasis
  effect on the coagulation activity, autocoagulation test (overall): have no effect on the coagulation activity
[1]
  Nitrites in blood plasma, Control + Compound: 14.39 ± 0.84 mkmol/ml
  Nitrites in brain, Cortex of cerebrum, Control + Compound: 4.31 ± 0.37 nmol/mg of protein
  Nitrites in brain, Hypothalamus, Control + Compound: 6.77 ± 0.83 nmol/mg of protein
  Nitrites in brain, Mesencephalon, Control + Compound: 6.65 ± 0.70 nmol/mg of protein
  Nitrites in liver, Control + Compound: 0.259 ± 0.019 nmol/mg of protein
  Nitrites in blood plasma, Control + Morphine + compound: 13.91 ± 1.91 mkmol/ml
  Nitrites in brain, Cortex of cerebrum, Control + Morphine + compound: 4.72 ± 0.37 nmol/mg of protein
  Nitrites in brain, Hypothalamus, Control + Morphine + compound: 6.57 ± 0.88 nmol/mg of protein
  Nitrites in brain, Mesencephalon, Control + Morphine + compound: 5.50 ± 0.43 nmol/mg of protein
  Nitrites in liver, Control + Morphine + compound: 0.285 ± 0.02 nmol/mg of protein

## Nc1cnc2c(=O)n([C@@H]3O[C@H](CO)[C@@H](O)[C@H]3O)[nH]c(=O)c2n1.[Na] [Compound 21, sodium salt of 3-amino-7-(β-D-ribofuranosile)pyrazine[2,3-d]-6H-pyridazine-5,8-dione]
Plasma hemostasis; dose 15.0 mg/kg intravenously
  A, % after 15 minutes (coagulating activity): 81.4%
  A, % after 30 minutes (coagulating activity): 101.3%
  A, % after 60 minutes (coagulating activity): 86.5%
  A, % after 120 minutes (coagulating activity): 97.4%
Plasma hemostasis; dose 30.0 mg/kg intravenously
  A, % after 15 minutes (coagulating activity): 97.2%
  A, % after 30 minutes (coagulating activity): 69.1%
  A, % after 60 minutes (coagulating activity): 103.7%
  A, % after 120 minutes (coagulating activity): 71.0%
Plasma hemostasis; dose 60.0 mg/kg intravenously
  A, % after 15 minutes (coagulating activity): 71.9%
  A, % after 30 minutes (coagulating activity): 62.1%
  A, % after 60 minutes (coagulating activity): 63.7%
  A, % after 120 minutes (coagulating activity): 66.2%
Plasma hemostasis
  effect on the coagulation activity, autocoagulation test (overall): have no effect on the coagulation activity

## O=c1[nH][nH]c(=O)c2nccnc12.[Li] [Compound 25, lithium salt of pyrazine[2,3-d]-6H-pyridazine-5,8-dione]
[1]
  Nitrites in blood plasma, Control + Compound: 17.10 ± 2.05 mkmol/ml
  Nitrites in brain, Cortex of cerebrum, Control + Compound: 4.47 ± 0.43 nmol/mg of protein
  Nitrites in brain, Hypothalamus, Control + Compound: 6.87 ± 0.80 nmol/mg of protein
  Nitrites in brain, Mesencephalon, Control + Compound: 6.98 ± 1.02 nmol/mg of protein
  Nitrites in liver, Control + Compound: 0.307 ± 0.012 nmol/mg of protein
  Nitrites in blood plasma, Control + Morphine + compound: 16.78 ± 2.11 mkmol/ml
  Nitrites in brain, Cortex of cerebrum, Control + Morphine + compound: 4.91 ± 0.32 nmol/mg of protein
  Nitrites in brain, Hypothalamus, Control + Morphine + compound: 6.67 ± 0.79 nmol/mg of protein
  Nitrites in brain, Mesencephalon, Control + Morphine + compound: 5.91 ± 0.74 nmol/mg of protein
  Nitrites in liver, Control + Morphine + compound: 0.287 ± 0.01 nmol/mg of protein

## O=c1[nH][nH]c(=O)c2c(Br)ncnc12.[K] [Compound 37, potassium salt of 4-bromine-pyrimido[4,5-D]-6H-pyridazine-5,8-dione]
Plasma hemostasis; dose 15.0 mg/kg intravenously
  A, % after 15 minutes (coagulating activity): 82.1%
  A, % after 30 minutes (coagulating activity): 102.8%
  A, % after 60 minutes (coagulating activity): 88.7%
  A, % after 120 minutes (coagulating activity): 100.6%
Plasma hemostasis; dose 30.0 mg/kg intravenously
  A, % after 15 minutes (coagulating activity): 99.8%
  A, % after 30 minutes (coagulating activity): 68.3%
  A, % after 60 minutes (coagulating activity): 105.8%
  A, % after 120 minutes (coagulating activity): 70.4%
Plasma hemostasis; dose 60.0 mg/kg intravenously
  A, % after 15 minutes (coagulating activity): 74.3%
  A, % after 30 minutes (coagulating activity): 63.0%
  A, % after 60 minutes (coagulating activity): 64.2%
  A, % after 120 minutes (coagulating activity): 66.3%
Plasma hemostasis
  effect on the coagulation activity, autocoagulation test (overall): have no effect on the coagulation activity
[1]
  Nitrites in blood plasma, Control + Compound: 16.13 ± 1.80 mkmol/ml
  Nitrites in brain, Cortex of cerebrum, Control + Compound: 4.36 ± 0.24 nmol/mg of protein
  Nitrites in brain, Hypothalamus, Control + Compound: 6.79 ± 0.92 nmol/mg of protein
  Nitrites in brain, Mesencephalon, Control + Compound: 6.84 ± 0.56 nmol/mg of protein
  Nitrites in liver, Control + Compound: 0.262 ± 0.018 nmol/mg of protein
  Nitrites in blood plasma, Control + Morphine + compound: 15.33 ± 0.87 mkmol/ml
  Nitrites in brain, Cortex of cerebrum, Control + Morphine + compound: 4.77 ± 0.28 nmol/mg of protein
  Nitrites in brain, Hypothalamus, Control + Morphine + compound: 6.52 ± 0.83 nmol/mg of protein
  Nitrites in brain, Mesencephalon, Control + Morphine + compound: 5.63 ± 0.37 nmol/mg of protein
  Nitrites in liver, Control + Morphine + compound: 0.274 ± 0.01 nmol/mg of protein
